Measurements: ChEMBL document CHEMBL4689842, “EUbOPEN Chemogenomics Library wave 1” (2021)

What was measured:
Assay type in all cases: toxicity, cell-based
HEK-293T = assay: Incucyte cell viability with HEK293T; conditions: human, 10 µM, compound concentration 10 uM
Fibroblast = assay: Incucyte cell viability with human fibroblast; conditions: 10 µM, compound concentration 10 uM
U2OS = assay: Incucyte cell viability with U2OS; conditions: human, 10 µM, compound concentration 10 uM
[1] = 0 h, replicate number 1, timepoint 0 hours
[2] = 6 h, replicate number 1, timepoint 6 hours
[3] = 6 h, replicate number 2, timepoint 6 hours
[4] = 12 h, replicate number 1, timepoint 12 hours
[5] = 18 h, replicate number 1, timepoint 18 hours
[6] = 24 h, replicate number 1, timepoint 24 hours
[7] = 0 h, replicate number 2, timepoint 0 hours
[8] = 18 h, replicate number 2, timepoint 18 hours
[9] = 24 h, replicate number 2, timepoint 24 hours
[10] = 12 h, replicate number 2, timepoint 12 hours
Note: filed as whole numbers so only -1 and 0 and 1 occur.

CC(=O)Nc1c(C(C)=O)c(=O)n(C)c2nc(-c3ccc(Cl)cc3Cl)c(-c3ccc(Cl)cc3)cc12 [NAPHTHYRIDINONE]
Growth Rate (HEK-293T; [1]): 0
Growth Rate (HEK-293T; [2]): 0
Growth Rate (HEK-293T; [3]): 1
Growth Rate (HEK-293T; [4]): 0
Growth Rate (HEK-293T; [5]): 0
Growth Rate (HEK-293T; [6]): 0
Growth Rate (Fibroblast; [1]): 0
Growth Rate (Fibroblast; [2]): 1
Growth Rate (Fibroblast; [3]): 0
Growth Rate (Fibroblast; [4]): 0
Growth Rate (Fibroblast; [5]): 0
Growth Rate (Fibroblast; [6]): 0
Growth Rate (U2OS; [7]): 0
Growth Rate (U2OS; [3]): 1
Growth Rate (U2OS; [4]): 0
Growth Rate (U2OS; [5]): 0
Growth Rate (U2OS; [8]): 1
Growth Rate (U2OS; [6]): 0
Growth Rate (U2OS; [9]): 1

CCOc1cc(N2CCC(O)CC2)ccc1Nc1ncc2c(n1)N(C)c1ccccc1C(=O)N2C
Growth Rate (HEK-293T; [1]): 0
Growth Rate (HEK-293T; [7]): 1
Growth Rate (HEK-293T; [3]): 1
Growth Rate (HEK-293T; [10]): 1
Growth Rate (HEK-293T; [8]): 1
Growth Rate (HEK-293T; [6]): 1
Growth Rate (HEK-293T; [9]): 0
Growth Rate (Fibroblast; [1]): 1
Growth Rate (Fibroblast; [2]): 1
Growth Rate (Fibroblast; [3]): 0
Growth Rate (Fibroblast; [4]): 1
Growth Rate (Fibroblast; [5]): 1
Growth Rate (Fibroblast; [6]): 1
Growth Rate (U2OS; [1]): 0
Growth Rate (U2OS; [7]): 1
Growth Rate (U2OS; [2]): 0
Growth Rate (U2OS; [4]): 1
Growth Rate (U2OS; [5]): 1
Growth Rate (U2OS; [6]): 1

O=C(c1ccc(F)cc1)N1CC(COc2ccc(Br)cc2)(C(=O)O)C1 [PF-04475866]
Growth Rate (HEK-293T; [1]): 0
Growth Rate (HEK-293T; [2]): 1
Growth Rate (HEK-293T; [3]): 0
Growth Rate (HEK-293T; [4]): 1
Growth Rate (HEK-293T; [10]): 0
Growth Rate (HEK-293T; [5]): 0
Growth Rate (HEK-293T; [6]): 1
Growth Rate (HEK-293T; [9]): 0
Growth Rate (Fibroblast; [1]): 0
Growth Rate (Fibroblast; [8]): 1
Growth Rate (Fibroblast; [6]): 1
Growth Rate (U2OS; [1]): 1
Growth Rate (U2OS; [7]): 0
Growth Rate (U2OS; [2]): 1
Growth Rate (U2OS; [4]): 1
Growth Rate (U2OS; [5]): 0
Growth Rate (U2OS; [8]): 1
Growth Rate (U2OS; [6]): 1

CS(=O)(=O)NC[C@H]1CC[C@H](Nc2nc3c(s2)CCSc2ccccc2-3)CC1
Growth Rate (HEK-293T; [7]): 0
Growth Rate (HEK-293T; [2]): 0
Growth Rate (HEK-293T; [4]): 0
Growth Rate (HEK-293T; [5]): 0
Growth Rate (HEK-293T; [6]): 0
Growth Rate (Fibroblast; [1]): 0
Growth Rate (Fibroblast; [2]): 0
Growth Rate (Fibroblast; [4]): 1
Growth Rate (Fibroblast; [5]): 1
Growth Rate (Fibroblast; [6]): 0
Growth Rate (U2OS; [1]): 0
Growth Rate (U2OS; [2]): 0
Growth Rate (U2OS; [4]): 0
Growth Rate (U2OS; [10]): 1
Growth Rate (U2OS; [5]): 0
Growth Rate (U2OS; [6]): 1

N#CC(Cc1ccc(O)cc1)c1ccc(O)cc1 (configuration not stated) [DIARYLPROPIONITRILE]
Growth Rate (HEK-293T; [1]): 1
Growth Rate (HEK-293T; [7]): 0
Growth Rate (HEK-293T; [2]): 1
Growth Rate (HEK-293T; [4]): 0
Growth Rate (HEK-293T; [10]): 1
Growth Rate (HEK-293T; [5]): 0
Growth Rate (HEK-293T; [8]): 1
Growth Rate (HEK-293T; [6]): 0
Growth Rate (HEK-293T; [9]): 1
Growth Rate (Fibroblast; [1]): 0
Growth Rate (Fibroblast; [2]): 0
Growth Rate (Fibroblast; [4]): 0
Growth Rate (Fibroblast; [5]): 0
Growth Rate (Fibroblast; [6]): 0
Growth Rate (U2OS; [3]): 0
Growth Rate (U2OS; [4]): 1
Growth Rate (U2OS; [10]): 0
Growth Rate (U2OS; [5]): 0
Growth Rate (U2OS; [6]): 1
Growth Rate (U2OS; [9]): 0

Cc1c(C(=O)NC2CCCCC2)sc2nc3ccc(N)cc3n12.Cl
Growth Rate (HEK-293T; [1]): 0
Growth Rate (HEK-293T; [2]): 0
Growth Rate (HEK-293T; [4]): 0
Growth Rate (HEK-293T; [5]): 0
Growth Rate (HEK-293T; [6]): 0
Growth Rate (Fibroblast; [1]): 0
Growth Rate (Fibroblast; [2]): 0
Growth Rate (Fibroblast; [4]): 1
Growth Rate (Fibroblast; [8]): 1
Growth Rate (Fibroblast; [6]): 1
Growth Rate (U2OS; [1]): 0
Growth Rate (U2OS; [2]): 1
Growth Rate (U2OS; [3]): 0
Growth Rate (U2OS; [4]): 1
Growth Rate (U2OS; [5]): 1
Growth Rate (U2OS; [6]): 1

CNCCN1CCC(OCc2ccccc2)CC1
Growth Rate (HEK-293T; [1]): 1
Growth Rate (HEK-293T; [7]): 0
Growth Rate (HEK-293T; [3]): 1
Growth Rate (HEK-293T; [10]): 1
Growth Rate (HEK-293T; [5]): 1
Growth Rate (HEK-293T; [6]): 1
Growth Rate (Fibroblast; [7]): 0
Growth Rate (Fibroblast; [2]): 0
Growth Rate (Fibroblast; [3]): 1
Growth Rate (Fibroblast; [4]): 0
Growth Rate (Fibroblast; [10]): 1
Growth Rate (Fibroblast; [5]): 0
Growth Rate (Fibroblast; [6]): 1
Growth Rate (U2OS; [7]): 0
Growth Rate (U2OS; [2]): 1
Growth Rate (U2OS; [4]): 1
Growth Rate (U2OS; [5]): 1
Growth Rate (U2OS; [6]): 1

COc1ccc(C2(O)OC(=O)C(c3ccc4c(c3)OCO4)=C2Cc2cc(OC)c(OC)c(OC)c2)cc1 (configuration not stated) [PD-156707]
Growth Rate (HEK-293T; [1]): 0
Growth Rate (HEK-293T; [2]): 1
Growth Rate (HEK-293T; [3]): 0
Growth Rate (HEK-293T; [4]): 1
Growth Rate (HEK-293T; [10]): 0
Growth Rate (HEK-293T; [5]): 0
Growth Rate (HEK-293T; [6]): 0
Growth Rate (Fibroblast; [1]): 1
Growth Rate (Fibroblast; [7]): 0
Growth Rate (Fibroblast; [2]): 0
Growth Rate (Fibroblast; [4]): 0
Growth Rate (Fibroblast; [5]): 0
Growth Rate (Fibroblast; [8]): 1
Growth Rate (Fibroblast; [6]): 0
Growth Rate (Fibroblast; [9]): 1
Growth Rate (U2OS; [7]): 1
Growth Rate (U2OS; [2]): 1
Growth Rate (U2OS; [4]): 0
Growth Rate (U2OS; [10]): 1
Growth Rate (U2OS; [5]): 0
Growth Rate (U2OS; [8]): 1
Growth Rate (U2OS; [6]): 0
Growth Rate (U2OS; [9]): 1

Cl.Cl.c1ccc([C@@H]2C[C@H]2NC2CCNCC2)cc1
Growth Rate (HEK-293T; [7]): 1
Growth Rate (HEK-293T; [2]): 0
Growth Rate (HEK-293T; [4]): 1
Growth Rate (HEK-293T; [6]): 1
Growth Rate (Fibroblast; [1]): 0
Growth Rate (Fibroblast; [10]): 1
Growth Rate (Fibroblast; [8]): 1
Growth Rate (Fibroblast; [6]): 1
Growth Rate (U2OS; [1]): 0
Growth Rate (U2OS; [7]): 1
Growth Rate (U2OS; [3]): 1
Growth Rate (U2OS; [4]): 1
Growth Rate (U2OS; [5]): 1
Growth Rate (U2OS; [6]): 1

N[C@H](C(=O)O)c1ccc(C(=O)O)c(C(=O)O)c1
Growth Rate (HEK-293T; [1]): 0
Growth Rate (HEK-293T; [2]): 1
Growth Rate (HEK-293T; [4]): 1
Growth Rate (HEK-293T; [5]): 1
Growth Rate (HEK-293T; [6]): 1
Growth Rate (Fibroblast; [1]): 0
Growth Rate (Fibroblast; [2]): 1
Growth Rate (Fibroblast; [4]): 1
Growth Rate (Fibroblast; [5]): 1
Growth Rate (Fibroblast; [6]): 0
Growth Rate (U2OS; [1]): 0
Growth Rate (U2OS; [3]): 1
Growth Rate (U2OS; [4]): 1
Growth Rate (U2OS; [5]): 1
Growth Rate (U2OS; [6]): 1

C[C@@H](c1cccc(CN)c1)n1cc(Cl)cc(C(N)=O)c1=N.Cl
Growth Rate (HEK-293T; [1]): 0
Growth Rate (HEK-293T; [7]): 1
Growth Rate (HEK-293T; [6]): 1
Growth Rate (Fibroblast; [7]): 0
Growth Rate (Fibroblast; [2]): 1
Growth Rate (Fibroblast; [3]): 0
Growth Rate (Fibroblast; [4]): 1
Growth Rate (Fibroblast; [10]): 0
Growth Rate (Fibroblast; [5]): 1
Growth Rate (Fibroblast; [8]): 0
Growth Rate (Fibroblast; [6]): 1
Growth Rate (Fibroblast; [9]): 0
Growth Rate (U2OS; [7]): 1
Growth Rate (U2OS; [2]): 1
Growth Rate (U2OS; [3]): 0
Growth Rate (U2OS; [4]): 1
Growth Rate (U2OS; [10]): 0
Growth Rate (U2OS; [5]): 1
Growth Rate (U2OS; [8]): 0
Growth Rate (U2OS; [6]): 1
Growth Rate (U2OS; [9]): 0

C[S+]([O-])c1ccc(-c2nc(-c3ccncc3)c(-c3ccc(F)cc3)[nH]2)cc1 (configuration not stated) [SB-203580]
Growth Rate (HEK-293T; [1]): 0
Growth Rate (HEK-293T; [2]): 0
Growth Rate (HEK-293T; [4]): 0
Growth Rate (HEK-293T; [5]): 0
Growth Rate (HEK-293T; [6]): 0
Growth Rate (Fibroblast; [1]): 0
Growth Rate (Fibroblast; [3]): 0
Growth Rate (Fibroblast; [10]): 1
Growth Rate (Fibroblast; [8]): 1
Growth Rate (Fibroblast; [9]): 1
Growth Rate (U2OS; [3]): 0
Growth Rate (U2OS; [10]): 1
Growth Rate (U2OS; [5]): 1
Growth Rate (U2OS; [6]): 1

COc1ccc(CNC(=O)c2cc(-c3cncc(Cl)c3)cnc2-c2ccccn2)nc1OC [MK-1064]
Growth Rate (HEK-293T; [1]): 0
Growth Rate (HEK-293T; [2]): 0
Growth Rate (HEK-293T; [4]): 1
Growth Rate (HEK-293T; [10]): 0
Growth Rate (HEK-293T; [5]): 0
Growth Rate (HEK-293T; [6]): 1
Growth Rate (HEK-293T; [9]): 0
Growth Rate (Fibroblast; [1]): 0
Growth Rate (Fibroblast; [2]): 0
Growth Rate (Fibroblast; [4]): 0
Growth Rate (Fibroblast; [5]): 1
Growth Rate (Fibroblast; [6]): 0
Growth Rate (Fibroblast; [9]): 1
Growth Rate (U2OS; [1]): 0
Growth Rate (U2OS; [3]): 0
Growth Rate (U2OS; [4]): 1
Growth Rate (U2OS; [5]): 1
Growth Rate (U2OS; [8]): 0
Growth Rate (U2OS; [6]): 1
